Patent US9458110B2, “Phenylpyrazole derivatives as potent ROCK1 and ROCK2 inhibitors” (BRISTOL-MYERS SQUIBB COMPANY, priority 2013, dated 2016)

Columns and labels:
[1] = target: ROCK1 (Homo sapiens (Human), UniProt Q13464); experiment: ROCK assay (Caliper LABCHIP peptide phosphorylation), ROCK1; assay type: biochemical; settings: 5 μM ATP, 1.5 μM peptide substrate;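 note: Read-out is separation of phosphorylated from unphosphorylated peptide, with kinase activity inhibition computed at every concentration of a dose-response series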
[2] = target: ROCK2 (Homo sapiens (Human), UniProt O75116); experiment: ROCK assay (Caliper LABCHIP peptide phosphorylation), ROCK2; assay type: biochemical; settings: 5 μM ATP, 1.5 μM peptide substrate;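 note: reaction stopped with EDTA, then phosphorylated and unphosphorylated peptide resolved by microfluidic electrophoresis, kinase inhibition computed at each compound concentration in dose-response series, DMSO under 2%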
Sequence of ROCK2 (O75116 whole entry, species assumed): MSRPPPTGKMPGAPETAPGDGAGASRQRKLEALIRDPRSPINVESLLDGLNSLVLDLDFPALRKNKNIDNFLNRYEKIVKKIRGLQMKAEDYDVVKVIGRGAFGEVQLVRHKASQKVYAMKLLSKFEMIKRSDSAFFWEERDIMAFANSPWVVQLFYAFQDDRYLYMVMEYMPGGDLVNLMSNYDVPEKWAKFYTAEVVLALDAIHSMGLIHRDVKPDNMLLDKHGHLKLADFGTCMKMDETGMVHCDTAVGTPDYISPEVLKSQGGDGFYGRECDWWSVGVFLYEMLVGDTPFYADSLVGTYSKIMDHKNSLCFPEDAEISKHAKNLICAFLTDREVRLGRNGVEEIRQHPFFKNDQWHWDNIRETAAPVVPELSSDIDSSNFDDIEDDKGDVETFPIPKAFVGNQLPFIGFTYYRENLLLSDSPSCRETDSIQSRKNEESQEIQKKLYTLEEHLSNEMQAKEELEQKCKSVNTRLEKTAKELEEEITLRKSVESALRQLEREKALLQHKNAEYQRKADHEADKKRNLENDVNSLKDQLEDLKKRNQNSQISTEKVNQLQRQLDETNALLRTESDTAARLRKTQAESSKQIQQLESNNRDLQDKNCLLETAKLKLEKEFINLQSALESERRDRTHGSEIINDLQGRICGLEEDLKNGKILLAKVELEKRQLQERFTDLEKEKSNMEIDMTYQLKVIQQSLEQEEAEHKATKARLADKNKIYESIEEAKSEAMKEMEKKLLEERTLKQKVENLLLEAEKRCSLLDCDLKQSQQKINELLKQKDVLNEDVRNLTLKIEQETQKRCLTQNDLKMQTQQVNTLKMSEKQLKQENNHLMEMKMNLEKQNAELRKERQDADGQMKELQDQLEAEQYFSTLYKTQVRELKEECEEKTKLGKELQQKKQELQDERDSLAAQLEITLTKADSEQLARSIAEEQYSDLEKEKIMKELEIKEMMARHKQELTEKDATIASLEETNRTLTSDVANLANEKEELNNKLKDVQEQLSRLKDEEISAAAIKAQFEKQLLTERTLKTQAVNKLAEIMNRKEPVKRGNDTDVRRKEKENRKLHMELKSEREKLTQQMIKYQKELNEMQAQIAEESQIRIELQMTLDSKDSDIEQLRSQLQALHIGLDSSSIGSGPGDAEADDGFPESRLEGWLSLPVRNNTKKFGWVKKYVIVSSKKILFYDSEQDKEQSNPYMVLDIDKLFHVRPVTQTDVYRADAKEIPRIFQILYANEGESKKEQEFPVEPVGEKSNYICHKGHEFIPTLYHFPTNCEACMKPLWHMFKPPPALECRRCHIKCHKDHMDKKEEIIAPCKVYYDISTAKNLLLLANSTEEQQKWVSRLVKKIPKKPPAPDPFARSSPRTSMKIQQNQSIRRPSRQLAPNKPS

Sequence of ROCK1 (Q13464 whole entry, species assumed): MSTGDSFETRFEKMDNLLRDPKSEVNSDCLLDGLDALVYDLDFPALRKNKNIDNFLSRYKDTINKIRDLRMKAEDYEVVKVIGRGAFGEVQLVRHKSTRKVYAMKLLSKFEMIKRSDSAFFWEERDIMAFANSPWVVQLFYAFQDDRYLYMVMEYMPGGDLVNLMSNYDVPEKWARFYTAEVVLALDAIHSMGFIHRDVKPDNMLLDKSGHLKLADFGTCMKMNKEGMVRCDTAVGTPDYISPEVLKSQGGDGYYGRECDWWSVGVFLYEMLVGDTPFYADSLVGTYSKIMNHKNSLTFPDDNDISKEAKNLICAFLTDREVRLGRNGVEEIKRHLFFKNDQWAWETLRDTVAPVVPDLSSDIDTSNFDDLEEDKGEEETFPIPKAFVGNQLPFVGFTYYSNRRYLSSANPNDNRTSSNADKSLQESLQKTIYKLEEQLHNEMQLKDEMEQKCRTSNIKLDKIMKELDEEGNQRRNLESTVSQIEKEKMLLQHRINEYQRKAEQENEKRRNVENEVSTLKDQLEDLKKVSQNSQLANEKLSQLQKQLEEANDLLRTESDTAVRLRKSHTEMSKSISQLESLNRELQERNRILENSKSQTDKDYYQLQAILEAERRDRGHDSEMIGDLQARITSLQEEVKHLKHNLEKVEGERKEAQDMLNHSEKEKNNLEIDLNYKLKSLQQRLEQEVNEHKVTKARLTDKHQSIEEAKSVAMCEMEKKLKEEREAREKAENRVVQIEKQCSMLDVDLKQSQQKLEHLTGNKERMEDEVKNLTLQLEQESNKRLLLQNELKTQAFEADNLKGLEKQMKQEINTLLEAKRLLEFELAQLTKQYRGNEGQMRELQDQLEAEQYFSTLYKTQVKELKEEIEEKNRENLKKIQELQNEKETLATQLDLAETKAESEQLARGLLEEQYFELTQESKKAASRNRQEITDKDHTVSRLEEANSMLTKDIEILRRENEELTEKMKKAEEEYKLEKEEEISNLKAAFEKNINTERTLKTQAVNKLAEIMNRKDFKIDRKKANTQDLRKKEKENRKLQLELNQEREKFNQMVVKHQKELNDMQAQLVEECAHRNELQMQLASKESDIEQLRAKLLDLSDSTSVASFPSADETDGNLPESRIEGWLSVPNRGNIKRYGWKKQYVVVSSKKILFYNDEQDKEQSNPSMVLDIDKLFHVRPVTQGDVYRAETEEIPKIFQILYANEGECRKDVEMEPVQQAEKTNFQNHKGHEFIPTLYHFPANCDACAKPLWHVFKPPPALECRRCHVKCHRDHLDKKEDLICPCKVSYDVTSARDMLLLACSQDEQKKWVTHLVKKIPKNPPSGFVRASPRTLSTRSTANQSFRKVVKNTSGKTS

## COc1cc(C(=O)N[C@@H](Cc2ccc(F)cc2)C(=O)N(C)C)ccc1-c1cn[nH]c1 [Example 119, (2S)-3-(4-fluorophenyl)-2-{[3-methoxy-4-(1H-pyrazol-4-yl)phenyl] formamido}-N,N-dimethyl-propanamide]
[1]
  IC50: 2270 nM
[2]
  IC50: 1010 nM

## COc1cc(C(=O)NCCc2cccc(C(F)(F)F)c2)ccc1-c1cn[nH]c1 [Example 120, 3-methoxy-4-(1H-pyrazol-4-yl)-N-{2-[3-(trifluoro-methyl)phenyl]ethyl} benzamide]
[1]
  IC50: 94.6 nM
[2]
  IC50: 52 nM

## COc1cc(C(=O)NCCc2ccc(C(F)(F)F)cc2)ccc1-c1cn[nH]c1 [Example 121, 3-methoxy-4-(1H-pyrazol-4-yl)-N-{2-[4-(trifluoro-methyl)phenyl]ethyl} benzamide]
[1]
  IC50: 166 nM
[2]
  IC50: 78.1 nM

## COc1cc(C(=O)NCC(O)c2ccccc2Cl)ccc1-c1cn[nH]c1 (stereo not drawn) [Example 122, N-[2-(2-chlorophenyl)-2-hydroxyethyl]-3-methoxy-4-(1H-pyrazol-4-yl)benzamide]
[1]
  IC50: 35.5 nM
[2]
  IC50: 23.2 nM

## COc1cc(C(=O)NC[C@@H](O)c2ccccc2)ccc1-c1cn[nH]c1 [Example 123, N-[(2S)-2-hydroxy-2-phenylethyl]-3-methoxy-4-(1H-pyrazol-4-yl)benzamide]
[1]
  IC50: 84.1 nM
[2]
  IC50: 41.6 nM

## COc1cc(C(=O)NCCc2cccc(O)c2)ccc1-c1cn[nH]c1 [Example 124, N-[2-(3-hydroxyphenyl)ethyl]-3-methoxy-4-(1H-pyrazol-4-yl)benzamide]
[1]
  IC50: 21.5 nM
[2]
  IC50: 7 nM

## COc1cc(C(=O)NCC(c2ccccc2)N2CCCC2)ccc1-c1cn[nH]c1 (stereo not drawn) [Example 125, 3-methoxy-N-[2-phenyl-2-(pyrrolidin-1-yl)ethyl]-4-(1H-pyrazol-4-yl)benzamide]
[1]
  IC50: 156 nM
[2]
  IC50: 84.9 nM

## COc1ccccc1CCNC(=O)c1ccc(-c2cn[nH]c2)c(OC)c1 [Example 126, 3-methoxy-N-[2-(2-methoxyphenyl)ethyl]-4-(1H-pyrazol-4-yl)benzamide]
[1]
  IC50: 155 nM
[2]
  IC50: 1350 nM

## COc1cc(C(=O)NC[C@@H](O)c2cccc(Cl)c2)ccc1-c1cn[nH]c1 [Example 127, N-[(2S)-2-(3-chlorophenyl)-2-hydroxyethyl]-3-methoxy-4-(1H-pyrazol-4-yl)benzamide]
[1]
  IC50: 23.4 nM
[2]
  IC50: 32.1 nM

## COc1cc(C(=O)N[C@H](CO)Cc2ccccc2)ccc1-c1cn[nH]c1 [Example 128, N-[(2S)-1-hydroxy-3-phenylpropan-2-yl]-3-methoxy-4-(1H-pyrazol-4-yl)benzamide]
[1]
  IC50: 12.5 nM
[2]
  IC50: 5.7 nM

## COc1cc(C(=O)NC[C@@H](C)c2ccccc2)ccc1-c1cn[nH]c1 [Example 129, 3-methoxy-N-[(2S)-2-phenylpropyl]-4-(1H-pyrazol-4-yl)benzamide]
[1]
  IC50: 34 nM
[2]
  IC50: 33.1 nM

## COc1cc(C(=O)NC[C@H](O)c2ccccc2)ccc1-c1cn[nH]c1 [Example 130, N-[(2R)-2-hydroxy-2-phenylethyl]-3-methoxy-4-(1H-pyrazol-4-yl)benzamide]
[1]
  IC50: 53.7 nM
[2]
  IC50: 33.4 nM

## COc1cc(C(=O)NCC(O)c2cccc(O)c2)ccc1-c1cn[nH]c1 (stereo not drawn) [Example 131, N-[2-hydroxy-2-(3-hydroxyphenyl)ethyl]-3-methoxy-4-(1H-pyrazol-4-yl)benzamide]
[1]
  IC50: 42 nM
[2]
  IC50: 12.7 nM

## COc1cc(C(=O)NCC(c2ccccc2)N2CCNCC2)ccc1-c1cn[nH]c1 (stereo not drawn) [Example 132, 3-methoxy-N-[2-phenyl-2-(piperazin-1-yl)ethyl]-4-(1H-pyrazol-4-yl)benzamide]
[1]
  IC50: 180 nM
[2]
  IC50: 103 nM

## COc1cc(C(=O)N[C@@H](CO)Cc2ccccc2)ccc1-c1cn[nH]c1 [Example 133, N-[(2R)-1-hydroxy-3-phenylpropan-2-yl]-3-methoxy-4-(1H-pyrazol-4-yl)benzamide]
[1]
  IC50: 77.9 nM
[2]
  IC50: 34 nM

## COC(=O)c1cc(CNC(=O)c2ccc(-c3cn[nH]c3)c(OC)c2)ccc1F [Example 134, methyl 2-fluoro-5-({[3-methoxy-4-(1H-pyrazol-4-yl)phenyl] formamido}methyl)benzoate]
[1]
  IC50: 6.53 nM
[2]
  IC50: 0.82 nM

## COc1cccc(C(C)NC(=O)c2ccc(-c3cn[nH]c3)c(OC)c2)n1 (stereo not drawn) [Example 135, 3-methoxy-N-[1-(6-methoxypyridin-2-yl)ethyl]-4-(1H-pyrazol-4-yl)benzamide]
[1]
  IC50: 73.4 nM
[2]
  IC50: 16.9 nM

## C[C@@H](NC(=O)c1ccc(-c2cn[nH]c2)c(Cn2ccnn2)c1)c1ccccc1 [Example 137, N-[(1R)-1-phenylethyl]-4-(1H-pyrazol-4-yl)-3-(1H-1,2,3-triazol-1-ylmethyl) benzamide]
[1]
  IC50: > 2000 nM
[2]
  IC50: 1900 nM

## COc1cc(C(=O)NCc2cccc(C#N)c2)ccc1-c1cn[nH]c1 [Example 138, N-[(3-cyanophenyl)methyl]-3-methoxy-4-(1H-pyrazol-4-yl)benzamide]
[1]
  IC50: 32.6 nM
[2]
  IC50: 8.24 nM

## COc1ccc(F)c(C(C)NC(=O)c2ccc(-c3cn[nH]c3)c(OC)c2)c1 (stereo not drawn) [Example 139, N-[1-(2-fluoro-5-methoxy-phenyl)ethyl]-3-methoxy-4-(1H-pyrazol-4-yl)benzamide]
[1]
  IC50: 172 nM
[2]
  IC50: 47.2 nM

## COc1ccc(F)c(C(C)NC(=O)c2ccc(-c3cn[nH]c3)c(OC)c2)c1 (stereo not drawn) [Example 140, N-[1-(2-fluoro-5-methoxyphenyl)ethyl]-3-methoxy-4-(1H-pyrazol-4-yl)benzamide]
[1]
  IC50: 3.36 nM
[2]
  IC50: 0.83 nM

## COc1cc(C(=O)NCc2ccc(C#N)cc2)ccc1-c1cn[nH]c1 [Example 143, N-[(4-cyanophenyl)methyl]-3-methoxy-4-(1H-pyrazol-4-yl)benzamide]
[1]
  IC50: 365 nM
[2]
  IC50: 82.5 nM

## COc1cc(C(=O)NC(CCO)c2ccccc2)ccc1-c1cn[nH]c1 (stereo not drawn) [Example 145, N-(3-hydroxy-1-phenylpropyl)-3-methoxy-4-(1H-pyrazol-4-yl)benzamide]
[1]
  IC50: 301 nM
[2]
  IC50: 282 nM

## COc1cc(C(=O)NC(CCO)c2ccccc2)ccc1-c1cn[nH]c1 (stereo not drawn) [Example 146, N-(3-hydroxy-1-phenylpropyl)-3-methoxy-4-(1H-pyrazol-4-yl)benzamide]
[1]
  IC50: 7.8 nM
[2]
  IC50: 2.17 nM

## COc1ccc(F)c(C(C)NC(=O)c2ccc(-c3c[nH]nc3C)cc2OC)c1 (stereo not drawn) [Example 147, N-[1-(2-fluoro-5-methoxyphenyl)ethyl]-2-methoxy-4-(3-methyl-1H-pyrazol-4-yl)benzamide]
[1]
  IC50: 23.5 nM
[2]
  IC50: 5.09 nM

## COc1ccc(F)c(CNC(=O)c2ccc(-c3cn[nH]c3)c(C)c2)c1 [Example 148, N-[(2-fluoro-5-methoxyphenyl)methyl]-3-methyl-4-(1H-pyrazol-4-yl)benzamide]
[1]
  IC50: 174 nM
[2]
  IC50: 51.2 nM

## Cc1cc(C(=O)NCc2ccc(F)cc2Cl)ccc1-c1cn[nH]c1 [Example 149, N-[(2-chloro-4-fluorophenyl)methyl]-3-methyl-4-(1H-pyrazol-4-yl)benzamide]
[1]
  IC50: 16.9 nM
[2]
  IC50: 11.6 nM

## Cc1cc(C(=O)N[C@H](C)c2ccc(F)cc2)ccc1-c1cn[nH]c1 [Example 150, N-[(1R)-1-(4-fluorophenyl)ethyl]-3-methyl-4-(1H-pyrazol-4-yl)benzamide]
[1]
  IC50: 13.1 nM
[2]
  IC50: 18.9 nM

## Cc1cc(C(=O)NCc2c(F)cccc2Cl)ccc1-c1cn[nH]c1 [Example 151, N-[(2-chloro-6-fluorophenyl)methyl]-3 methyl-4-(1H-pyrazol-4-yl)benzamide]
[1]
  IC50: 19.7 nM
[2]
  IC50: 9.83 nM

## COc1ccc(F)c(C(C)NC(=O)c2ccc(-c3c[nH]nc3C)cc2OC)c1 (stereo not drawn) [Example 152, N-[1-(2-fluoro-5-methoxyphenyl)ethyl]-2-methoxy-4-(3-methyl-1H-pyrazol-4-yl)benzamide]
[1]
  IC50: 1510 nM
[2]
  IC50: 627 nM

## COc1cccc([C@@H](C)NC(=O)c2ccc(-c3c(C)n[nH]c3C)c(C)c2)c1 [Example 153, 4-(3,5-dimethyl-1H-pyrazol-4-yl)-N-[(1R)-1-(3-methoxyphenyl)ethyl]-3-methylbenzamide]
[1]
  IC50: > 2000 nM
[2]
  IC50: 415 nM

## C[C@@H](NC(=O)c1ccc(-c2cn[nH]c2)c(OCC(C)(C)O)c1)c1ccccc1 [Example 154, 3-(2-hydroxy-2-methylpropoxy)-N-[(1R)-1-phenylethyl]-4-(1H-pyrazol-4-yl)benzamide]
[1]
  IC50: 1790 nM
[2]
  IC50: 452 nM

## COC(=O)C[C@@H](NC(=O)c1ccc(-c2cn[nH]c2)c(C)c1)c1ccccc1 [Example 155, methyl (3R)-3-{[3-methyl-4-(1H-pyrazol-4-yl)phenyl] formamido}-3-phenyl-propanoate]
[1]
  IC50: 405 nM
[2]
  IC50: 70.2 nM

## C[C@@H](NC(=O)c1ccc(-c2cn[nH]c2)c(OC(F)F)c1)c1ccccc1 [Example 156, 3-(difluoro-methoxy)-N-[(1R)-1-phenylethyl]-4-(1H-pyrazol-4-yl)benzamide]
[1]
  IC50: 11.4 nM
[2]
  IC50: 4 nM

## COC[C@@H](NC(=O)c1ccc(-c2cn[nH]c2)c(OC)c1)c1ccccc1 [Example 157, 3-methoxy-N-[(1S)-2-methoxy-1-phenylethyl]-4-(1H-pyrazol-4-yl)benzamide]
[1]
  IC50: 10.3 nM
[2]
  IC50: 3.94 nM

## COc1cc(C(=O)NC(C)c2cccc(O)n2)ccc1-c1cn[nH]c1 (stereo not drawn) [Example 159, N-[1-(6-hydroxypyridin-2-yl)ethyl]-3-methoxy-4-(1H-pyrazol-4-yl)benzamide]
[1]
  IC50: 7.39 nM
[2]
  IC50: 6.76 nM

## O=C(N[C@H](CO)c1ccccc1)c1ccc(-c2cn[nH]c2)c(OC(F)F)c1 [Example 160, 3-(difluoro-methoxy)-N-[(1S)-2-hydroxy-1-phenylethyl]-4-(1H-pyrazol-4-yl)benzamide]
[1]
  IC50: 17.1 nM
[2]
  IC50: 6.94 nM

## COc1cccc(CNC(=O)c2ccc(-c3cn[nH]c3)cc2CO)c1 [Example 161, 2-(hydroxymethyl)-N-[(3-methoxyphenyl)methyl]-4-(1H-pyrazol-4-yl)benzamide]
[1]
  IC50: 792 nM
[2]
  IC50: 185 nM

## COc1cc(C(=O)NC(CO)c2ccccc2F)ccc1-c1cn[nH]c1 (stereo not drawn) [Example 162, N-[1-(2-fluorophenyl)-2-hydroxyethyl]-3-methoxy-4-(1H-pyrazol-4-yl)benzamide]
[1]
  IC50: 11.7 nM
[2]
  IC50: 2.94 nM
